Test results as given in patent publication US9005633B2 (priority 2009, dated 2015).
Read-outs that look alike come from different tables or passages of the source.

How the values were obtained:
Settings in all cases: 10 ug/ml AMT, 200 mW/cm2 UV-A
YF (FMD 1240) = format: cell-based, Yellow Fever (YF)
[1] = system: WNV (CDC) M29539 (NY99-35262-11); experiment: AMT photo-inactivation of arbovirus: West Nile Virus; format: cell-based, West Nile Virus (WNV)
SLE TBH-28 CDC M29777 = experiment: AMT photo-inactivation of arbovirus: Saint Louis Encephalitis; format: cell-based, Saint Louis Encephalitis (SLE)
VEE TC 83 TVB 5215 = format: cell-based, Venezuelan Equine Encephalitis (VEE)

For `Cc1oc2c(C)c3oc(=O)cc(C)c3cc2c1CN.Cl` [AMT, 4′-Aminomethyltrioxsalen hydrochloride], the “YF (FMD 1240) titer after AMT and UV-A” value (YF (FMD 1240); 0 minutes) was 1.47E+05 PFU/ml, the “YF (FMD 1240) titer after AMT and UV-A” value (YF (FMD 1240); 1 minute) was 3.68E+04 PFU/ml and the “YF (FMD 1240) titer after AMT and UV-A” value (YF (FMD 1240); 5 minutes) was 9.00E+01 PFU/ml. The “YF (FMD 1240) titer after AMT and UV-A” value (YF (FMD 1240); 10 minutes) was 0 PFU/ml, the “YF (FMD 1240) titer after AMT and UV-A” value (YF (FMD 1240); 20 minutes) was 0 PFU/ml and the “WNV (CDC) M29539 (NY99-35262-11) titer after AMT and UV-A” value (shortened to “WNV (CDC) M29539 (NY99-35262-11) titer”) ([1]; 0 minutes) was 8.00E+04 PFU/ml. The “WNV (CDC) M29539 (NY99-35262-11) titer” value ([1]; 1 minute) was 1.68E+04 PFU/ml, the “WNV (CDC) M29539 (NY99-35262-11) titer” value ([1]; 5 minutes) was 5.00E+01 PFU/ml and the “WNV (CDC) M29539 (NY99-35262-11) titer” value ([1]; 10 minutes) was 0 PFU/ml. The “WNV (CDC) M29539 (NY99-35262-11) titer” value ([1]; 20 minutes) was 0 PFU/ml, the “SLE TBH-28 CDC M29777 titer after AMT and UV-A” value (from here on “SLE TBH-28 CDC M29777 titer”) (SLE TBH-28 CDC M29777; 0 minutes) was 3.20E+03 PFU/ml and the “SLE TBH-28 CDC M29777 titer” value (SLE TBH-28 CDC M29777; 1 minute) was 8.00E+01 PFU/ml. The “SLE TBH-28 CDC M29777 titer” value (SLE TBH-28 CDC M29777; 5 minutes) was 0 PFU/ml, the “SLE TBH-28 CDC M29777 titer” value (SLE TBH-28 CDC M29777; 10 minutes) was 0 PFU/ml and the “SLE TBH-28 CDC M29777 titer” value (SLE TBH-28 CDC M29777; 20 minutes) was 0 PFU/ml. For the same molecule, the “VEE TC 83 TVB 5215 titer after AMT and UV-A” value (from here on “VEE TC 83 TVB 5215 titer”) (VEE TC 83 TVB 5215; 0 minutes) was 1.72E+09 PFU/ml, the “VEE TC 83 TVB 5215 titer” value (VEE TC 83 TVB 5215; 1 minute) was 1.60E+08 PFU/ml and the “VEE TC 83 TVB 5215 titer” value (VEE TC 83 TVB 5215; 5 minutes) was 4.80E+04 PFU/ml. The “VEE TC 83 TVB 5215 titer” value (VEE TC 83 TVB 5215; 10 minutes) was 1.50E+02 PFU/ml and the “VEE TC 83 TVB 5215 titer” value (VEE TC 83 TVB 5215; 20 minutes) was 0 PFU/ml.
